Measured values from patent US11420958B2, “Aryl and heteroaryl substituted indole compounds” (BRISTOL-MYERS SQUIBB COMPANY, priority 2017, dated 2022).

Legend:
Type in all cases: cell-based
human TLR9 = human TLR9 (Homo sapiens (Human), UniProt Q9NR96); experiment: TLR9 inhibition reporter assay (HEK-Blue, SEAP); settings: HEK-Blue cells overexpressing human TLR9, ODN2006 5 nM stimulation
Procedure, shortened: (§1)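 Percent inhibition of agonist-induced SEAP secretion was scored against DMSO-only and reference-inhibitor controls. Stimulation lasted 22 h at 37 °C following 30 min compound pre-exposure (0.05 nM–50 μM); ligands were gardiquimod 7.5 μM, R848 15.9 μM and ODN2006 5 nM for TLR7, 8 and 9.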

human TLR7 = human TLR7 (Homo sapiens (Human), UniProt Q9NYK1); experiment: TLR7 inhibition reporter assay (HEK-Blue, SEAP); settings: HEK-Blue cells overexpressing human TLR7, gardiquimod 7.5 μM stimulation
Procedure, shortened: as §1

human TLR8 = human TLR8 (Homo sapiens (Human), UniProt Q9NR97); experiment: TLR8 inhibition reporter assay (HEK-Blue, SEAP); settings: HEK-Blue cells overexpressing human TLR8, R848 15.9 μM stimulation
Procedure, shortened: as §1

human TLR8, sequence (Q9NR97 27-1041): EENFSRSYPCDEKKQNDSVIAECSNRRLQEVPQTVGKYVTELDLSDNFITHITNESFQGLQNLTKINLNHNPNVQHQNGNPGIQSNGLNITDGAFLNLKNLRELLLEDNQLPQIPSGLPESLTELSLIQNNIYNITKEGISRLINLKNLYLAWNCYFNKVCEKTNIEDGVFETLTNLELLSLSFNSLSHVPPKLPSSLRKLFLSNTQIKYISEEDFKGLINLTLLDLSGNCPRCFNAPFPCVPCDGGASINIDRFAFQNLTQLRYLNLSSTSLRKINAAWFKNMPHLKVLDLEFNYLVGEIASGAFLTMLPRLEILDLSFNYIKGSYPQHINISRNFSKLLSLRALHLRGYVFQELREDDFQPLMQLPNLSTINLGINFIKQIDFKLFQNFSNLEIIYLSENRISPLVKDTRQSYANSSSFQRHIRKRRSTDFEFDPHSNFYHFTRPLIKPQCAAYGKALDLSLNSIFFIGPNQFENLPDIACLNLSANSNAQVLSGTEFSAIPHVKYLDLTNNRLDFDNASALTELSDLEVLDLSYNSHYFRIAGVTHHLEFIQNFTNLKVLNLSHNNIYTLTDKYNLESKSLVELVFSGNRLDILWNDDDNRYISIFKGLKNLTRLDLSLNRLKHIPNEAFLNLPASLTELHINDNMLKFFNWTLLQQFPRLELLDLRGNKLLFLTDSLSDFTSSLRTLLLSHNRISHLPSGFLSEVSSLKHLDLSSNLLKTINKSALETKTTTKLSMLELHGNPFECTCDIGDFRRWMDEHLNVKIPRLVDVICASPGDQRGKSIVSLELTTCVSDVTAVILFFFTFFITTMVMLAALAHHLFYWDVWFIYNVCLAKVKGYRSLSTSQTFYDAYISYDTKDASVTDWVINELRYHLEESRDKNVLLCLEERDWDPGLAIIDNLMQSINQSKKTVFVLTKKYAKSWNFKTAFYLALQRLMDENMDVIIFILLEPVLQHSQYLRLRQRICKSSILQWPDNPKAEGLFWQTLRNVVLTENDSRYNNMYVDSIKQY
human TLR9, sequence (Q9NR96 26-1032): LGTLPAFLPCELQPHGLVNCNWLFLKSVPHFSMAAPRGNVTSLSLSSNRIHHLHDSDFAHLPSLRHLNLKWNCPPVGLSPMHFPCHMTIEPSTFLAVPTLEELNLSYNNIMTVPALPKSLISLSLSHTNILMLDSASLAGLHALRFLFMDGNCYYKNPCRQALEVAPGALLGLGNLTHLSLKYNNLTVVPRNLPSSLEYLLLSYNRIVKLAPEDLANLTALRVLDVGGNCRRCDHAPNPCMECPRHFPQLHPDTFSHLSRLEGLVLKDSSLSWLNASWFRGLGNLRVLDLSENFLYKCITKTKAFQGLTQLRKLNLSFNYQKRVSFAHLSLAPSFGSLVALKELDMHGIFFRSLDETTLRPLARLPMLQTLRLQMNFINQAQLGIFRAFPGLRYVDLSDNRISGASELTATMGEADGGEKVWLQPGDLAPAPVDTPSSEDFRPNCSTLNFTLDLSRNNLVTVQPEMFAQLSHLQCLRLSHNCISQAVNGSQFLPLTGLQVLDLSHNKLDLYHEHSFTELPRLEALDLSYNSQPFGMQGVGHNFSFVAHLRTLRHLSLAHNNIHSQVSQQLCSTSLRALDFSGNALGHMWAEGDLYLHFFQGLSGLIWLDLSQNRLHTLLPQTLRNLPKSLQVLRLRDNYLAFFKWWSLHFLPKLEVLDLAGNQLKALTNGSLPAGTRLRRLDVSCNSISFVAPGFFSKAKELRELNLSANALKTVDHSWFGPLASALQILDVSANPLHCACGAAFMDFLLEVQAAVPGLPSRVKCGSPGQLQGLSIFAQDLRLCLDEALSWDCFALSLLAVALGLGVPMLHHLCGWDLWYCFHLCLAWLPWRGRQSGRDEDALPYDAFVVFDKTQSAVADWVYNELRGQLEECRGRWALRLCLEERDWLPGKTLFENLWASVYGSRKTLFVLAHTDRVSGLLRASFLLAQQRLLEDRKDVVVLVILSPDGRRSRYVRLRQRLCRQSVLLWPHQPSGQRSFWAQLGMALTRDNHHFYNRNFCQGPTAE
human TLR7, sequence (Q9NYK1 27-1049): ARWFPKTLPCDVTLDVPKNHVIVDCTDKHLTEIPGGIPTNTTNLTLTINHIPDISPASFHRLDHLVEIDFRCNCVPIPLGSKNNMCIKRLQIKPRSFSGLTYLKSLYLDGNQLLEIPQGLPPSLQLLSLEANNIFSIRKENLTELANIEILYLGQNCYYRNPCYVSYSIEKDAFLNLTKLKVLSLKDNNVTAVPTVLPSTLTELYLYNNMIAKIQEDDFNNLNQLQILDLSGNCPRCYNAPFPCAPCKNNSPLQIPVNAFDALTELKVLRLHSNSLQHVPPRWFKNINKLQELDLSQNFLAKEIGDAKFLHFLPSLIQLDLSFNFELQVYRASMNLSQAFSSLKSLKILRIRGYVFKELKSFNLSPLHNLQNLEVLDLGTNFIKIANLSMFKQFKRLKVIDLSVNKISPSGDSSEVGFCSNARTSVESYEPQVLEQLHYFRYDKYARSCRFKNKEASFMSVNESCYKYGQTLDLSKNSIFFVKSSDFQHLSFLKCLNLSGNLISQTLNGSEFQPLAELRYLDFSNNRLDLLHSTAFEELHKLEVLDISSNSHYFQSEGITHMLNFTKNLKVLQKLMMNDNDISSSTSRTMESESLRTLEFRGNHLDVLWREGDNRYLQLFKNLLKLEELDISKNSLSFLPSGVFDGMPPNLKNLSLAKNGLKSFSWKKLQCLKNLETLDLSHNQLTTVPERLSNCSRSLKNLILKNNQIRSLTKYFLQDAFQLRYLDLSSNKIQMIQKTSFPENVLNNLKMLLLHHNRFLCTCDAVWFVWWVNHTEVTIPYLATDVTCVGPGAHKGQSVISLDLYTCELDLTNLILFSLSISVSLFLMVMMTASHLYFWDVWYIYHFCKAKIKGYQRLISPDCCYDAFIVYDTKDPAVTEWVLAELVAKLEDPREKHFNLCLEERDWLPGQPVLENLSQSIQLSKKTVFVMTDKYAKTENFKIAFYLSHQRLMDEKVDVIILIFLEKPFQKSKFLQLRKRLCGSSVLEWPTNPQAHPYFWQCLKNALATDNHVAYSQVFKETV

For `COc1ccc(-c2[nH]c3ccc(-c4nnc(CNCCOC(C)C)o4)cc3c2C(C)C)cc1OC` [Example 114, N-((5-(2-(3,4-dimethoxyphenyl)-3-isopropyl-1H-indol-5-yl)-1,3,4-oxadiazol-2-yl)methyl)-2-isopropoxyethan-1-amine], the IC50 (human TLR9) was greater than 50000 nM, the IC50 (human TLR7) was 386 nM and the IC50 (human TLR8) was 530 nM.

Work on `COc1ccc(-c2[nH]c3ccc(-c4nnc(CN5CCOCC5)o4)cc3c2C(C)C)cc1OC` [Example 115, 4-((5-(2-(3,4-dimethoxyphenyl)-3-isopropyl-1H-indol-5-yl)-1,3,4-oxadiazol-2-yl)methyl)morpholine] yielded an IC50 (human TLR9) greater than 50000 nM, an IC50 (human TLR7) of 579 nM and an IC50 (human TLR8) of 202 nM.

`COc1ccc(-c2[nH]c3ccc(-c4nnc(CN5CCN(C(C)=O)CC5)o4)cc3c2C(C)C)cc1OC` [Example 116, 1-(4-((5-(2-(3,4-dimethoxyphenyl)-3-isopropyl-1H-indol-5-yl)-1,3,4-oxadiazol-2-yl)methyl)piperazin-1-yl)ethan-1-one] showed an IC50 (human TLR9) greater than 50000 nM, an IC50 (human TLR7) of 331 nM and an IC50 (human TLR8) of 395 nM.

`COc1ccc(-c2[nH]c3ccc(-c4nnc(CN5CC[C@H](NC(C)=O)C5)o4)cc3c2C(C)C)cc1OC` [Example 117, (S)—N-(1-((5-(2-(3,4-dimethoxyphenyl)-3-isopropyl-1H-indol-5-yl)-1,3,4-oxadiazol-2-yl)methyl)pyrrolidin-3-yl)acetamide] was tested, and the IC50 (human TLR9) was greater than 50000 nM, the IC50 (human TLR7) was 704 nM and the IC50 (human TLR8) was 50 nM.

In the case of `COCCN(CCOC)Cc1nnc(-c2ccc3[nH]c(-c4ccc(OC)c(OC)c4)c(C(C)C)c3c2)o1` [Example 118, N-((5-(2-(3,4-dimethoxyphenyl)-3-isopropyl-1H-indol-5-yl)-1,3,4-oxadiazol-2-yl)methyl)-2-methoxy-N-(2-methoxyethyl)ethan-1-amine], the IC50 (human TLR9) is reported as 18600 nM, the IC50 (human TLR7) is reported as 227 nM and the IC50 (human TLR8) is reported as 362 nM.

Molecule `COc1ccc(-c2[nH]c3ccc(-c4nnc(CN5CCCN(C(C)=O)CC5)o4)cc3c2C(C)C)cc1OC` [Example 119, 1-(4-((5-(2-(3,4-dimethoxyphenyl)-3-isopropyl-1H-indol-5-yl)-1,3,4-oxadiazol-2-yl)methyl)-1,4-diazepan-1-yl)ethan-1-one] has an IC50 (human TLR9) of 14400 nM, an IC50 (human TLR7) of 106 nM and an IC50 (human TLR8) of 99 nM.

`COc1ccc(-c2[nH]c3ccc(-c4nnc(CN5CCNC(=O)C5)o4)cc3c2C(C)C)cc1OC` [Example 120, 4-((5-(2-(3,4-dimethoxyphenyl)-3-isopropyl-1H-indol-5-yl)-1,3,4-oxadiazol-2-yl)methyl)piperazin-2-one] gave an IC50 (human TLR9) greater than 50000 nM, an IC50 (human TLR7) of 371 nM and an IC50 (human TLR8) of 222 nM.

In the case of `COCCN(C)Cc1nnc(-c2ccc3[nH]c(-c4ccc(OC)c(OC)c4)c(C(C)C)c3c2)o1` [Example 121, N-((5-(2-(3,4-dimethoxyphenyl)-3-isopropyl-1H-indol-5-yl)-1,3,4-oxadiazol-2-yl)methyl)-2-methoxy-N-methylethan-1-amine], the IC50 (human TLR9) is reported as greater than 50000 nM, the IC50 (human TLR7) is reported as 108 nM and the IC50 (human TLR8) is reported as 166 nM.

With `COc1ccc(-c2[nH]c3ccc(-c4nnc(CN5CCC[C@H]5C(N)=O)o4)cc3c2C(C)C)cc1OC` [Example 122, (S)-1-((5-(2-(3,4-dimethoxyphenyl)-3-isopropyl-1H-indol-5-yl)-1,3,4-oxadiazol-2-yl)methyl)pyrrolidine-2-carboxamide] the IC50 (human TLR9) was greater than 50000 nM, the IC50 (human TLR7) was 225 nM and the IC50 (human TLR8) was 279 nM.

`C#CCN(C)Cc1nnc(-c2ccc3[nH]c(-c4ccc(OC)c(OC)c4)c(C(C)C)c3c2)o1` [Example 123, N-((5-(2-(3,4-dimethoxyphenyl)-3-isopropyl-1H-indol-5-yl)-1,3,4-oxadiazol-2-yl)methyl)-N-methylprop-2-yn-1-amine] gave an IC50 (human TLR9) greater than 50000 nM, an IC50 (human TLR7) of 703 nM and an IC50 (human TLR8) of 213 nM.

`COc1ccc(-c2[nH]c3ccc(-c4nnc(C5CCNCC5)[nH]4)cc3c2C(C)C)cc1OC` [Example 124, 2-(3,4-dimethoxyphenyl)-3-isopropyl-5-(5-(piperidin-4-yl)-4H-1,2,4-triazol-3-yl)-1H-indole] was tested, and the IC50 (human TLR9) was 9200 nM, the IC50 (human TLR7) was 182 nM and the IC50 (human TLR8) was 108 nM.

Molecule `CC(C)c1c(-c2ccnc3[nH]ncc23)[nH]c2ccc(-c3nnc(C(=O)N4CCCN(C)CC4)o3)cc12` [Example 125, (5-(3-isopropyl-2-(1H-pyrazolo[3,4-b]pyridin-4-yl)-1H-indol-5-yl)-1,3,4-oxadiazol-2-yl)(4-methyl-1,4-diazepan-1-yl)methanone] has an IC50 (human TLR9) of 776 nM, an IC50 (human TLR7) of 183 nM and an IC50 (human TLR8) of 40 nM.

`CC(C)c1c(-c2ccnc3[nH]ncc23)[nH]c2ccc(-c3nnc([C@H]4CCCNC4)o3)cc12` [Example 126, (S)-2-(3-isopropyl-2-(1H-pyrazolo[3,4-b]pyridin-4-yl)-1H-indol-5-yl)-5-(piperidin-3-yl)-1,3,4-oxadiazole] gave an IC50 (human TLR9) of 389 nM, an IC50 (human TLR7) of 45 nM and an IC50 (human TLR8) of 3.4 nM.

For `COc1ccc(-c2[nH]c3ccc(-c4nc(C(=O)N5CC6CNCC6C5)co4)cc3c2C(C)C)cc1OC` (stereo not drawn) [Example 127, (2-(2-(3,4-dimethoxyphenyl)-3-isopropyl-1H-indol-5-yl)oxazol-4-yl)(hexahydropyrrolo[3,4-c]pyrrol-2(1H)-yl)methanone], the IC50 (human TLR9) was 1580 nM, the IC50 (human TLR7) was 21 nM and the IC50 (human TLR8) was 6.5 nM.

Molecule `CC(C)c1c(-c2ccnc3n[nH]cc23)[nH]c2ccc(-c3nnc(CN4CCCC4)o3)cc12` [Example 128, 2-(3-isopropyl-2-(2H-pyrazolo[3,4-b]pyridin-4-yl)-1H-indol-5-yl)-5-(pyrrolidin-1-ylmethyl)-1,3,4-oxadiazole] has an IC50 (human TLR9) of 34100 nM, an IC50 (human TLR7) of 1100 nM and an IC50 (human TLR8) of 167 nM.

In the case of `COc1ccc(-c2[nH]c3ccc(-c4nnc(C5CCN(CC(=O)N(C)C)CC5)[nH]4)cc3c2C(C)C)cc1OC` [Example 129, 2-(4-(5-(2-(3,4-dimethoxyphenyl)-3-isopropyl-1H-indol-5-yl)-4H-1,2,4-triazol-3-yl)piperidin-1-yl)-N,N-dimethylacetamide], the IC50 (human TLR9) is reported as 3460 nM, the IC50 (human TLR7) is reported as 60 nM and the IC50 (human TLR8) is reported as 14 nM.

`CNC(=O)CN1CCC(c2nnc(-c3ccc4[nH]c(-c5ccc(OC)c(OC)c5)c(C(C)C)c4c3)[nH]2)CC1` [Example 130, 2-(4-(5-(2-(3,4-dimethoxyphenyl)-3-isopropyl-1H-indol-5-yl)-4H-1,2,4-triazol-3-yl)piperidin-1-yl)-N-methylacetamide] showed an IC50 (human TLR9) of 7000 nM, an IC50 (human TLR7) of 27 nM and an IC50 (human TLR8) of 209 nM.

Molecule `COc1ccc(-c2[nH]c3ccc(-c4nnc(C5CCN(C(=O)CN(C)C)CC5)[nH]4)cc3c2C(C)C)cc1OC` [Example 131, 1-(4-(5-(2-(3,4-dimethoxyphenyl)-3-isopropyl-1H-indol-5-yl)-4H-1,2,4-triazol-3-yl)piperidin-1-yl)-2-(dimethylamino)ethan-1-one] has an IC50 (human TLR9) of 6480 nM, an IC50 (human TLR7) of 29 nM and an IC50 (human TLR8) of 37 nM.

With `CNCc1nnc(-c2ccc3[nH]c(-c4ccnc5n[nH]cc45)c(C(C)C)c3c2)o1` [Example 132, 1-(5-(3-isopropyl-2-(2H-pyrazolo[3,4-b]pyridin-4-yl)-1H-indol-5-yl)-1,3,4-oxadiazol-2-yl)-N-methylmethanamine] the IC50 (human TLR9) was 47400 nM, the IC50 (human TLR7) was 2680 nM and the IC50 (human TLR8) was 44 nM.

For `Cc1cc(-c2[nH]c3ccc(-c4nnc(C(=O)NCCN(C)C)s4)cc3c2C(C)C)ccn1` [Example 133, N-(2-(dimethylamino)ethyl)-5-(3-isopropyl-2-(2-methylpyridin-4-yl)-1H-indol-5-yl)-1,3,4-thiadiazole-2-carboxamide], the IC50 (human TLR9) was 441 nM, the IC50 (human TLR7) was 18 nM and the IC50 (human TLR8) was 2 nM.
